Test results reported in US9216991B2 (Ares Trading S.A., priority 2012, dated 2015).
pIC50: −log10 of the molar value. Structures can show the parent of a compound that is named as a salt.

Biological target: T1, IRAK4 (Homo sapiens, UniProt Q9NWZ3)
T1 construct: His (N); TEV cleavage site (N)
T1 sequence (Q9NWZ3 1-460): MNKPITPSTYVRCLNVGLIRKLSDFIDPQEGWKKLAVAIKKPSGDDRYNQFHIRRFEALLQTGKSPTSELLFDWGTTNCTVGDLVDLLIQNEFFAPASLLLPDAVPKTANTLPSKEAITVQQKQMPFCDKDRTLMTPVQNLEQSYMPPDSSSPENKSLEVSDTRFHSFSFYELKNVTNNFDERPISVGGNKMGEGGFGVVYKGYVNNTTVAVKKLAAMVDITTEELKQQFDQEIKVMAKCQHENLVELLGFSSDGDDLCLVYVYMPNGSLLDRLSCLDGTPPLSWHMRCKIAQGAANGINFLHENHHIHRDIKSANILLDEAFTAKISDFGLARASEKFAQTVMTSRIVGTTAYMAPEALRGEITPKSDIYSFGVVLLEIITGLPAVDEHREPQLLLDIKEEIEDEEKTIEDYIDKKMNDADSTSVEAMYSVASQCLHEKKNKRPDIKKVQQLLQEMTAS
Assay: IRAK4 Enzymatic Assay
Assay type: biochemical
Details: His-TEV-IRAK4 20 ng/well, ATP 2 μM, STK1-biotin peptide 300 nM, 3 hours at 30° C., FlashPlate radioactivity
Description: IRAK4 is a human purified recombinant enzyme (His-TEV-IRAK1 (194-712)
IRAK4 hydrolyses ATP, autophosphorylates and phosphorylates a Serine/Threonine generic peptidic substrate (STK: 61ST1BLC from CisBio International based in Bagnols/Cèze FR).
Measurement of IRAK-4 inhibition is performed in streptavidin coated 384 well FlashPlate (PerkinElmer #SMP410A). His-TEV-IRAK4 (20 ng/well), ATP (2 μM, [^33P]ATP 0.25 μCi/well), STK1-biotin peptide (300 nM) and compounds in DMSO (range of concentrations from 20 μM to 1nM) or controls (2% DMSO) are incubated for 3 hours at 30° C. in assay buffer: Hepes pH7.0 50 mM, Fatty acid-free BSA 0.1%, Dithiothreitol DTT 2 mM, MgCl2 10 mM, EGTA 0.5 mM, Tween-20 0.01%, MnCl2 5 mM.
Kinase reaction is stopped by addition of EDTA. Supernatant is discarded, plates are washed three times with 150 mM NaCl and radioactivity is then measured in a Microbeta Trilux reader.

pIC50	SMILES
> 7.00	CCN(C)C(=O)[C@H]1CC[C@H](n2cc(-c3cnc(-c4cccc(-c5cnn(C)c5)c4)nc3)cn2)CC1 [Example 204, 4-(4-{2-[3-(1-Methyl-1H-pyrazol-4-yl)-phenyl]-pyrimidin-5-yl}-pyrazol-1-yl)-cyclohexanecarboxylic acid ethyl-methyl-amide]
6.00 to 7.00	Cc1cc(-c2cccc(-c3ncc(-c4cnn([C@@H]5CCCS(=O)(=O)C5)c4)cn3)c2)cnn1 (single isomer, unassigned) [Example 241]
5.30 to 6.00	Cn1cc(-c2cccc(-c3ncc(-c4cnn(CCC(=O)N5CCOCC5)c4)cn3)c2)cn1 [Example 83, 3-(4-{2-[3-(1-Methyl-1H-pyrazol-4-yl)-phenyl]-pyrimidin-5-yl}-pyrazol-1-yl)-1-morpholin-4-yl-propan-1-one]
> 7.00	Cn1cc(-c2cccc(-c3ncc(-c4cnn([C@@H]5CCCN(S(C)(=O)=O)C5)c4)cn3)c2)cn1 [Example 268, 5-[(R)-1-(1-Methanesulfonyl-piperidin-3-yl)-1H-pyrazol-4-yl]-2-[3-(1-methyl-1H-pyrazol-4-yl)-phenyl]-pyrimidine]
5.30 to 6.00	Cn1cc(-c2cccc(-c3ncc(-c4cnn(C[C@H]5CCCN5)c4)cn3)c2)cn1 [Example 71, 2-[3-(1-Methyl-1H-pyrazol-4-yl)-phenyl]-5-(1-(R)-1-pyrrolidin-2-ylmethyl-1H-pyrazol-4-yl)-pyrimidine hydrochloride]
6.00 to 7.00	COCC(=O)N1CCC(n2cc(-c3cnc(-c4cccc(-c5cnn(C)c5)c4)nc3)cn2)CC1 [Example 105, 2-Methoxy-1-[4-(4-{2-[3-(1-methyl-1H-pyrazol-4-yl)-phenyl]-pyrimidin-5-yl}-pyrazol-1-yl)-piperidin-1-yl]-ethanone]
> 7.00	Cn1cc(-c2cccc(-c3ncc(-c4cnn([C@H]5CC[C@H](N6CCOCC6)CC5)c4)cn3)c2)cn1 [Example 208, Trans-4-[4-(4-{2-[3-(1-Methyl-1H-pyrazol-4-yl)-phenyl]-pyrimidin-5-yl}-pyrazol-1-yl)-cyclohexyl]-morpholine]
6.00 to 7.00	COCC(C)NC(=O)Cn1cc(-c2cnc(-c3cccc(-c4cnn(C)c4)c3)nc2)cn1 (stereo not shown) [Example 63]
6.00 to 7.00	Cn1cc(-c2cccc(-c3ncc(-c4cnn(CCc5ccccn5)c4)cn3)c2)cn1 [Example 47, 2-[3-(1-Methyl-1H-pyrazol-4-yl)-phenyl]-5-[1-(2-pyridin-2-yl-ethyl)-1H-pyrazol-4-yl]-pyrimidine]
> 7.00	CN(C)C(=O)C1CCC(n2cc(-c3cnc(-c4cccc(-c5cnn(C)c5)c4)nc3)cn2)CC1 (mixture of isomers) [Example 121, 4-(4-{2-[3-(1-Methyl-1H-pyrazol-4-yl)-phenyl]-pyrimidin-5-yl}-pyrazol-1-yl)-cyclohexanecarboxylic acid dimethylamide]
6.00 to 7.00	Cn1cc(-c2cccc(-c3ncc(-c4cnn([C@H]5CCNC5)c4)cn3)c2)cn1 [Example 125, 2-[3-(1-Methyl-1H-pyrazol-4-yl)-phenyl]-5-((S)-1-pyrrolidin-3-yl-1H-pyrazol-4-yl)-pyrimidine]
> 7.00	Cn1cc(-c2cccc(-c3ncc(-c4cnn(C5CCC(C(=O)N6CCO[C@@H](CO)C6)CC5)c4)cn3)c2)cn1 (stereo partly drawn) [Example 266, ((R)-2-Hydroxymethyl-morpholin-4-yl)-[4-((S)-4-{2-[3-(1-methyl-1H-pyrazol-4-yl)-phenyl]-pyrimidin-5-yl}-pyrazol-1-yl)-cyclohexyl]-methanone]
5.30 to 6.00	CC(=O)N1CC[C@@H](n2cc(-c3cnc(-c4cccc(-c5cnn(C)c5)c4)nc3)cn2)C1 [Example 130, 1-[(R)-3-(4-{2-[3-(1-Methyl-1H-pyrazol-4-yl)-phenyl]-pyrimidin-5-yl}-pyrazol-1-yl)-pyrrolidin-1-yl]-ethanone]
5.30 to 6.00	Cc1ccc(-c2cccc(-c3ncc(-c4cnn([C@H]5CC[C@H](C(=O)N(C)C)CC5)c4)cn3)c2)nn1 [Example 237, Trans-4-(4-{2-[3-(6-Methyl-pyridazin-3-yl)-phenyl]-pyrimidin-5-yl}-pyrazol-1-yl)-cyclohexanecarboxylic acid dimethylamide]
6.00 to 7.00	Cc1cc(-c2cccc(-c3ncc(-c4cnn([C@H]5CC[C@H](O)CC5)c4)cn3)c2)cnn1 [Example 247, trans-4-(4-{2-[3-(6-Methyl-pyridazin-4-yl)-phenyl]-pyrimidin-5-yl}-pyrazol-1-yl)-cyclohexanol]
6.00 to 7.00	Cn1cc(-c2cccc(-c3ncc(-c4cnn(C5CCN(C(=O)CO)CC5)c4)cn3)c2)cn1 [Example 106, 2-Hydroxy-1-[4-(4-{2-[3-(1-methyl-1H-pyrazol-4-yl)-phenyl]-pyrimidin-5-yl}-pyrazol-1-yl)-piperidin-1-yl]-ethanone]
5.30 to 6.00	Cn1cc(-c2cccc(-c3ncc(-c4cnn(CCNS(C)(=O)=O)c4)cn3)c2)cn1 [Example 210, N-[2-(4-{2-[3-(1-Methyl-1H-pyrazol-4-yl)-phenyl]-pyrimidin-5-yl}-pyrazol-1-yl)-ethyl]-methanesulfonamide]
6.00 to 7.00	Cn1cc(-c2cccc(-c3ncc(-c4cnn(CC(=O)N5CC6CCC(C5)O6)c4)cn3)c2)cn1 [Example 94, 2-(4-{2-[3-(1-Methyl-1H-pyrazol-4-yl)-phenyl]-pyrimidin-5-yl}-pyrazol-1-yl)-1-(8-oxa-3-aza-bicyclo[3.2.1]oct-3-yl)-ethanone]
> 7.00	Cn1cc(-c2cccc(-c3ncc(-c4cnn([C@H]5CC[C@]6(CCC(=O)N6)CC5)c4)cn3)c2)cn1 [Example 250, cis-8-(4-{2-[3-(1-Methyl-1H-pyrazol-4-yl)-phenyl]-pyrimidin-5-yl}-pyrazol-1-yl)-1-aza-spiro[4.5]decan-2-one]
> 7.00	Cn1cc(-c2cccc(-c3ncc(-c4cnn([C@H]5CC[C@H](C(=O)NCCO)CC5)c4)cn3)c2)cn1 [Example 184, trans-4-(4-{2-[3-(1-Methyl-1H-pyrazol-4-yl)-phenyl]-pyrimidin-5-yl}-pyrazol-1-yl)-cyclohexanecarboxylic acid (2-hydroxy-ethyl)-amide]
6.00 to 7.00	Cn1cc(-c2cccc(-c3ncc(-c4cnn(CC(=O)NC5CCOCC5)c4)cn3)c2)cn1 [Example 54, 2-(4-{2-[3-(1-Methyl-1H-pyrazol-4-yl)-phenyl]-pyrimidin-5-yl}-pyrazol-1-yl)-N-(tetrahydro-pyran-4-yl)-acetamide]
6.00 to 7.00	Cn1cc(-c2cccc(-c3ncc(-c4cnn(C5CCNCC5)c4)cn3)c2)cn1 [Example 1, 2-[3-(1-Methyl-1H-pyrazol-4-yl)-phenyl]-5-(1-piperidin-4-yl-1H-pyrazol-4-yl)-pyrimidine hydrochloride]
6.00 to 7.00	Cn1cc(-c2cccc(-c3ncc(-c4cnn(C5CCCOC5)c4)cn3)c2)cn1 (stereo not shown) [Example 221, 2-[3-(1-Methyl-1H-pyrazol-4-yl)-phenyl]-5-[1-(tetrahydro-pyran-3-yl)-1H-pyrazol-4-yl]-pyrimidine]
6.00 to 7.00	FCC(CF)n1cc(-c2cccc(-c3ncc(-c4cnn(C5CCNCC5)c4)cn3)c2)cn1 [Example 16, 2-{3-[1-(2-Fluoro-1-fluoromethyl-ethyl)-1H-pyrazol-4-yl]-phenyl}-5-(1-piperidin-4-yl-1H-pyrazol-4-yl)-pyrimidine hydrochloride]
6.00 to 7.00	Cn1cc(-c2cccc(-c3ncc(-c4cnn(C5CCOC5=O)c4)cn3)c2)cn1 (stereo not shown) [Example 129, 3-(4-{2-[3-(1-Methyl-1H-pyrazol-4-yl)-phenyl]-pyrimidin-5-yl}-pyrazol-1-yl)-dihydro-furan-2-one]
